test system: hrpA promoter (T3SS); test: hrpA promoter-probe phrpA in Erwinia amylovora 273, flow cytometry; assay type: cell-based; conditions: Ea273 (phrpA), HIM + 100 μM compound, 6 h
Description: Wild-type Erwinia amylovora 273 was used in this study. The promoter-probe plasmid phrpA was constructed as follows. The hrpA promoter region of Erwinia amylovora 273 was amplified and cloned into pPROBE-NT to produce PhrpA. Plasmid PhrpA was electroporated into Erwinia amylovora 273. Expression of hrpA was analyzed using a FACS Calibur flow cytometer (BD Biosciences, CA). Wild-type Erwinia amylovora 273 containing phrpA was cultured in a hrp-inducing medium (HIM) containing dimethyl sulfoxide (DMSO; solvent of chemical compounds), or HIM supplemented with 100 μM of each compound, and promoter activity was assessed at 6 h and 9 h by measuring GFP intensity using flow cytometry (Table 19).

Row | SMILES | Avg MFI ± SD, hrpA expression
1 | O=C(O)/C=C/c1ccccc1C(=O)O [Compound 024, trans-2-Carboxycinnamic acid] | 361.1 ± 76.1
2 | O=C(O)/C=C/c1ccc(O)cc1O [Compound 002, 2,4-Dihydroxycinnamic acid] | 1365.3 ± 104.9
3 | O=C(/C=C/c1ccccc1F)NO [Compound 154, trans-2-Fluorocinnamohydroxamic acid] | 111.4 ± 15.1
4 | COc1cccc(/C=C/C(=O)NO)c1 [Compound 158, trans-3-Methoxycinnamohydroxamic acid] | 216.2 ± 12.5
5 | O=C(O)C#Cc1ccccc1 [Compound 136, Phenylpropiolic acid] | 261.7 ± 1.0
6 | O=C(O)/C=C/c1ccc(C(=O)Cc2ccccc2)cc1 [Compound 164, trans-4-(Benzylcarbonyl)cinnamic acid] | 155.7 ± 22.2
7 | O=Cc1ccc(/C=C/C(=O)O)cc1 [Compound 029, trans-4-Formlycinnamic acid] | 285.1 ± 40.8
8 | O=C(O)/C=C/c1cccnc1 [Compound 013, trans-3-(3-Pyridyl)acrylic acid] | 468.3 ± 7.7
9 | O=C(/C=C/c1ccccc1Cl)NO [Compound 150, trans-2-Chlorocinnamohydroxamic acid] | 25.9 ± 3.2
10 | O=C(/C=C/c1ccc([N+](=O)[O-])cc1)NO [Compound 155, trans-4-Nitrocinnamohydroxamic acid] | 108.4 ± 8.5
11 | Cc1ccc(/C=C/C(=O)NO)cc1 [Compound 142, trans-4-Methylcinnamohydroxamic acid] | 126.2 ± 5.6
12 | COc1cccc(/C=C/C(=O)O)c1 [Compound 016, trans-3-Methoxycinnamic acid] | 265.3 ± 24.4
13 | COc1ccccc1/C=C/C(=O)O [Compound 015, trans-2-Methoxycinnamic acid] | 342.6 ± 7.0
14 | O=C(O)/C=C/c1cccs1 [Compound 011, trans-3-(2-Thienyl)acrylic acid] | 230.1 ± 5.8

same assay, conditions: Ea273 (phrpA), HIM + 100 μM compound, 9 h

Row | SMILES | Avg MFI ± SD, hrpA expression
15 | O=C(O)/C=C/c1ccccc1C(=O)O [Compound 024, trans-2-Carboxycinnamic acid] | 332.2 ± 19.6
16 | O=C(O)/C=C/c1ccc(O)cc1O [Compound 002, 2,4-Dihydroxycinnamic acid] | 1479.8 ± 72.9
17 | O=C(/C=C/c1ccccc1F)NO [Compound 154, trans-2-Fluorocinnamohydroxamic acid] | 77.8 ± 1.3
18 | COc1cccc(/C=C/C(=O)NO)c1 [Compound 158, trans-3-Methoxycinnamohydroxamic acid] | 250.6 ± 13.9
19 | O=C(O)C#Cc1ccccc1 [Compound 136, Phenylpropiolic acid] | 307.0 ± 9.3
20 | O=C(O)/C=C/c1ccc(C(=O)Cc2ccccc2)cc1 [Compound 164, trans-4-(Benzylcarbonyl)cinnamic acid] | 116.4 ± 6.7
21 | O=Cc1ccc(/C=C/C(=O)O)cc1 [Compound 029, trans-4-Formlycinnamic acid] | 218.3 ± 9.9
22 | O=C(O)/C=C/c1cccnc1 [Compound 013, trans-3-(3-Pyridyl)acrylic acid] | 245.7 ± 3.1
23 | O=C(/C=C/c1ccccc1Cl)NO [Compound 150, trans-2-Chlorocinnamohydroxamic acid] | 30.5 ± 3.3
24 | O=C(/C=C/c1ccc([N+](=O)[O-])cc1)NO [Compound 155, trans-4-Nitrocinnamohydroxamic acid] | 132.5 ± 2.6
25 | Cc1ccc(/C=C/C(=O)NO)cc1 [Compound 142, trans-4-Methylcinnamohydroxamic acid] | 106.0 ± 13.6
26 | COc1cccc(/C=C/C(=O)O)c1 [Compound 016, trans-3-Methoxycinnamic acid] | 198.5 ± 20.0
27 | COc1ccccc1/C=C/C(=O)O [Compound 015, trans-2-Methoxycinnamic acid] | 255.1 ± 1.7
28 | O=C(O)/C=C/c1cccs1 [Compound 011, trans-3-(2-Thienyl)acrylic acid] | 167.3 ± 8.2
